In article PMC6906348 (Therapeutic Advances in Medical Oncology, 2019):

Test system: patients with advanced HCC
Experiment: Safety: adverse events
Assay type: in vivo, human
Settings: for ALT increased (AE regardless of study drug relationship) / AST increased (AE regardless of study drug relationship) / Abdominal pain (AE regardless of study drug relationship) / Acute kidney injury (AE regardless of study drug relationship) / Anemia (AE regardless of study drug relationship) / Ascites (AE regardless of study drug relationship) / Blood bilirubin increased (AE regardless of study drug relationship) / Blood creatinine increased (AE regardless of study drug relationship) / Constipation (AE regardless of study drug relationship) / Decreased appetite (AE regardless of study drug relationship) / Diarrhea (AE regardless of study drug relationship) / Fatigue (AE regardless of study drug relationship) / Hyperbilirubinemia (AE regardless of study drug relationship) / Hypoalbuminemia (AE regardless of study drug relationship) / Insomnia (AE regardless of study drug relationship) / Leukopenia (AE regardless of study drug relationship) / Nausea (AE regardless of study drug relationship) / Number of patients with at least one event (AE regardless of study drug relationship) / Peripheral edema (AE regardless of study drug relationship) / Platelet count decreased (AE regardless of study drug relationship) / Pyrexia (AE regardless of study drug relationship) / Vomiting (AE regardless of study drug relationship) / Weight decreased (AE regardless of study drug relationship): patients n (%)
[1] = 300 mg capsule BID n = 9, All grades
[2] = 300 mg capsule BID n = 9, Grades 3/4
[3] = 400 mg tablet BID n = 2, All grades
[4] = 400 mg tablet BID n = 2, Grades 3/4
[5] = 600 mg capsule BID n = 27, All grades

For CNC(=O)c1ccc(-c2cnc3ncc(Cc4ccc5ncccc5c4)n3n2)cc1F [capmatinib], which “predefined qualifying adverse events in dose-determining stage” value (300 mg BID capsules, first 28 days of treatment, six evaluable patients) is on record?
The value was “No qualifying AEs”.

What about the “ALT increased (AE regardless of study drug relationship)” value (“ALT increased” for short) [1] of the same compound?
Its value is 0.

And the “AST increased (AE regardless of study drug relationship)” value (“AST increased” below) [1]?
The value was 1 (11).

And the “Abdominal pain (AE regardless of study drug relationship)” value (shortened to “Abdominal pain”) [1]?
Its value is 2 (22).

What about the “Acute kidney injury (AE regardless of study drug relationship)” value (from here on “Acute kidney injury”) [1] of the same compound?
Its value is 2 (22).

And the “Anemia (AE regardless of study drug relationship)” value (from here on “Anemia”) [1]?
Its value is 3 (33).

And the “Ascites (AE regardless of study drug relationship)” value (“Ascites” for short) [1]?
The value was 1 (11).

What about the “Blood bilirubin increased (AE regardless of study drug relationship)” value (from here on “Blood bilirubin increased”) [1] of the same compound?
Its value is 2 (22).

What about the “Blood creatinine increased (AE regardless of study drug relationship)” value (“Blood creatinine increased” below) [1] of the same compound?
The value was 3 (33).

What about the “Constipation (AE regardless of study drug relationship)” value (“Constipation” below) [1] of the same compound?
Its value is 2 (22).

What about the “Decreased appetite (AE regardless of study drug relationship)” value (from here on “Decreased appetite”) [1] of the same compound?
The value was 3 (33).

And the “Diarrhea (AE regardless of study drug relationship)” value (“Diarrhea” for short) [1]?
Its value is 5 (56).

What about the “Fatigue (AE regardless of study drug relationship)” value (shortened to “Fatigue”) [1] of the same compound?
Its value is 3 (33).

And the “Hyperbilirubinemia (AE regardless of study drug relationship)” value (shortened to “Hyperbilirubinemia”) [1]?
Its value is 0.

And the “Hypoalbuminemia (AE regardless of study drug relationship)” value (from here on “Hypoalbuminemia”) [1]?
The value was 2 (22).

And the “Insomnia (AE regardless of study drug relationship)” value (from here on “Insomnia”) [1]?
Its value is 1 (11).

What about the “Leukopenia (AE regardless of study drug relationship)” value (shortened to “Leukopenia”) [1] of the same compound?
The value was 0.

What about the “Nausea (AE regardless of study drug relationship)” value (from here on “Nausea”) [1] of the same compound?
Its value is 6 (67).

What about the “Number of patients with at least one event (AE regardless of study drug relationship)” value (“Number of patients” for short) [1] of the same compound?
The value was 9 (100).

What about the “Peripheral edema (AE regardless of study drug relationship)” value (“Peripheral edema” for short) [1] of the same compound?
Its value is 2 (22).

And the “Platelet count decreased (AE regardless of study drug relationship)” value (shortened to “Platelet count decreased”) [1]?
The value was 0.

And the “Pyrexia (AE regardless of study drug relationship)” value (“Pyrexia” below) [1]?
Its value is 1 (11).

And the “Vomiting (AE regardless of study drug relationship)” value (“Vomiting” for short) [1]?
Its value is 4 (44).

What about the “Weight decreased (AE regardless of study drug relationship)” value (shortened to “Weight decreased”) [1] of the same compound?
The value was 2 (22).

What about the “ALT increased” value [2] of the same compound?
Its value is 0.

What about the “AST increased” value [2] of the same compound?
The value was 1 (11).

And the “Abdominal pain” value [2]?
Its value is 0.

And the “Acute kidney injury” value [2]?
Its value is 1 (11).

What about the “Anemia” value [2] of the same compound?
The value was 2 (22).

What about the “Ascites” value [2] of the same compound?
Its value is 0.

What about the “Blood bilirubin increased” value [2] of the same compound?
The value was 1 (11).

What about the “Blood creatinine increased” value [2] of the same compound?
Its value is 0.

And the “Constipation” value [2]?
Its value is 0.

And the “Decreased appetite” value [2]?
Its value is 0.

What about the “Diarrhea” value [2] of the same compound?
Its value is 1 (11).

And the “Fatigue” value [2]?
The value was 0.

And the “Hyperbilirubinemia” value [2]?
The value was 0.

And the “Hypoalbuminemia” value [2]?
The value was 1 (11).

What about the “Insomnia” value [2] of the same compound?
Its value is 0.

What about the “Leukopenia” value [2] of the same compound?
Its value is 0.

And the “Nausea” value [2]?
The value was 0.

And the “Number of patients” value [2]?
Its value is 5 (56).

What about the “Peripheral edema” value [2] of the same compound?
The value was 0.

What about the “Platelet count decreased” value [2] of the same compound?
Its value is 0.

And the “Pyrexia” value [2]?
The value was 0.

And the “Vomiting” value [2]?
The value was 1 (11).

And the “Weight decreased” value [2]?
The value was 0.

And the “ALT increased” value [3]?
The value was 1 (50).

What about the “AST increased” value [3] of the same compound?
Its value is 0.

What about the “Abdominal pain” value [3] of the same compound?
Its value is 0.

What about the “Acute kidney injury” value [3] of the same compound?
The value was 0.

What about the “Anemia” value [3] of the same compound?
The value was 0.

What about the “Ascites” value [3] of the same compound?
The value was 0.

And the “Blood bilirubin increased” value [3]?
Its value is 0.

And the “Blood creatinine increased” value [3]?
The value was 0.

And the “Constipation” value [3]?
The value was 1 (50).

What about the “Decreased appetite” value [3] of the same compound?
Its value is 0.

What about the “Diarrhea” value [3] of the same compound?
The value was 0.

What about the “Fatigue” value [3] of the same compound?
The value was 1 (50).

What about the “Hyperbilirubinemia” value [3] of the same compound?
The value was 0.

And the “Hypoalbuminemia” value [3]?
Its value is 0.

And the “Insomnia” value [3]?
The value was 1 (50).

And the “Leukopenia” value [3]?
The value was 0.

And the “Nausea” value [3]?
Its value is 1 (50).

What about the “Number of patients” value [3] of the same compound?
The value was 2 (100).

And the “Peripheral edema” value [3]?
Its value is 0.

What about the “Platelet count decreased” value [3] of the same compound?
The value was 0.

What about the “Pyrexia” value [3] of the same compound?
Its value is 0.

And the “Vomiting” value [3]?
Its value is 1 (50).

And the “Weight decreased” value [3]?
Its value is 0.

And the “ALT increased” value [4]?
Its value is 1 (50).

And the “AST increased” value [4]?
Its value is 0.

And the “Abdominal pain” value [4]?
The value was 0.

And the “Acute kidney injury” value [4]?
Its value is 0.

What about the “Anemia” value [4] of the same compound?
The value was 0.

What about the “Ascites” value [4] of the same compound?
The value was 0.

And the “Blood bilirubin increased” value [4]?
The value was 0.

What about the “Blood creatinine increased” value [4] of the same compound?
The value was 0.

What about the “Constipation” value [4] of the same compound?
Its value is 0.

And the “Decreased appetite” value [4]?
The value was 0.

What about the “Diarrhea” value [4] of the same compound?
Its value is 0.

And the “Fatigue” value [4]?
The value was 0.

What about the “Hyperbilirubinemia” value [4] of the same compound?
Its value is 0.

What about the “Hypoalbuminemia” value [4] of the same compound?
Its value is 0.

What about the “Insomnia” value [4] of the same compound?
The value was 0.

And the “Leukopenia” value [4]?
Its value is 0.

What about the “Nausea” value [4] of the same compound?
The value was 0.

And the “Number of patients” value [4]?
Its value is 1 (50).

And the “Peripheral edema” value [4]?
The value was 0.

What about the “Platelet count decreased” value [4] of the same compound?
Its value is 0.

What about the “Pyrexia” value [4] of the same compound?
The value was 0.

What about the “Vomiting” value [4] of the same compound?
Its value is 0.

And the “Weight decreased” value [4]?
The value was 0.

What about the “ALT increased” value [5] of the same compound?
The value was 6 (22).

What about the “AST increased” value [5] of the same compound?
The value was 11 (41).
